Test results from the supplement of paper PMC10307832.

Columns and labels:
Experiment in all cases: relative viability (nuclei count vs DMSO), 5 days (fraction); higher = more cells survive
Kobe2602 + Luminespib = compound: C1=CC(=CC=C1NC(=S)NNC2=C(C=C(C=C2[N+](=O)[O-])C(F)(F)F)[N+](=O)[O-])F [Kobe2602] + CCNC(=O)c1noc(-c2cc(C(C)C)c(O)cc2O)c1-c1ccc(CN2CCOCC2)cc1 [Luminespib] (partner 0.01 µM)
Procedure, shortened: (§1)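 Lung cancer cell lines in 1536-well plates were dosed by pin tool the day after seeding, either with one drug alone or with a fixed anchor-drug dose plus five library-drug doses (not always all listed) in √10 steps. After 5 days, cells were fixed and their nuclei stained in one step (final 0.05% Triton X-100, 1% formaldehyde, 1 ug/ml Hoechst), then counted on 4× images. Relative viability is the nuclei count in treated wells divided by that in vehicle wells. Values are medians of duplicate plates.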

Kobe2602 + Olaparib = compound: C1=CC(=CC=C1NC(=S)NNC2=C(C=C(C=C2[N+](=O)[O-])C(F)(F)F)[N+](=O)[O-])F [Kobe2602] + O=C(c1cc(Cc2n[nH]c(=O)c3ccccc23)ccc1F)N1CCN(C(=O)C2CC2)CC1 [Olaparib] (partner 8 µM)
Procedure, shortened: as §1

Kobe2602 + Palbociclib = compound: C1=CC(=CC=C1NC(=S)NNC2=C(C=C(C=C2[N+](=O)[O-])C(F)(F)F)[N+](=O)[O-])F [Kobe2602] + CC(=O)c1c(C)c2cnc(Nc3ccc(N4CCNCC4)cn3)nc2n(C2CCCC2)c1=O [Palbociclib] (partner 0.5 µM)
Procedure, shortened: as §1

[1] = compound: COc1cc2nccc(Oc3ccc(NC(=O)C4(C(=O)Nc5ccc(F)cc5)CC4)cc3)c2cc1OC [Cabozantinib] + O=C(CCCCCCC(=O)Nc1ccccc1)NO [Vorinostat] (partner 1 µM)
Procedure, shortened: as §1

UMC-11
relative viability (Kobe2602 + Luminespib; first compound 0.2 µM): 1.04
relative viability (Kobe2602 + Luminespib; first compound 0.6325 µM): 1.12
relative viability (Kobe2602 + Luminespib; first compound 2 µM): 0.959
relative viability (Kobe2602 + Luminespib; first compound 6.325 µM): 1.04
relative viability (Kobe2602 + Luminespib; first compound 20 µM): 1.05
relative viability (Kobe2602 + Olaparib; first compound 0.2 µM): 0.404
relative viability (Kobe2602 + Olaparib; first compound 0.6325 µM): 1.07
relative viability (Kobe2602 + Olaparib; first compound 2 µM): 0.384
relative viability (Kobe2602 + Olaparib; first compound 6.325 µM): 0.366
relative viability (Kobe2602 + Olaparib; first compound 20 µM): 1.02
relative viability (Kobe2602 + Palbociclib; first compound 0.2 µM): 0.356
relative viability (Kobe2602 + Palbociclib; first compound 0.6325 µM): 0.331
relative viability (Kobe2602 + Palbociclib; first compound 2 µM): 0.347
relative viability (Kobe2602 + Palbociclib; first compound 6.325 µM): 0.343
relative viability (Kobe2602 + Palbociclib; first compound 20 µM): 0.345
relative viability ([1]; first compound 0.02 µM): 0.302
relative viability ([1]; first compound 0.06325 µM): 0.336
relative viability ([1]; first compound 0.2 µM): 0.37
relative viability ([1]; first compound 0.6325 µM): 0.323
relative viability ([1]; first compound 2 µM): 0.332
